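Values below derive from 48-hour exposures of cells grown in 96-well plates, with endpoints linearly interpolated between the two concentrations bracketing the appropriate inhibition level. TGI marks complete inhibition of growth.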
How the values were obtained:
Test in all cases: NCI tumour cell line growth inhibition, 48 h
[1] = tested on: HOP-18 NSCLC
[2] = tested on: P388 leukemia
[3] = tested on: P388/ADR leukemia
[4] = tested on: SN12K1 renal
[5] = tested on: XF 498 CNS
[6] = tested on: DMS 114 small cell lung
[7] = tested on: DLD-1 colon
[8] = tested on: KM20L2 colon

Structure (SMILES) | TGI [1] [µM] | TGI [2] [µM] | TGI [3] [µM] | TGI [4] [µM] | TGI [5] [µM] | TGI [6] [µM] | TGI [7] [µM] | TGI [8] [µM]
COc1cc(C2c3cc4c(cc3[C@@H](Nc3cccc(C(C)=O)c3)C3COC(=O)[C@H]23)OCO4)cc(OC)c1O (stereo partly drawn) | 54.3 | 0.254 | 2.53 | 4.61 | 14.9 | 4.77 | 4.93 | > 23.3
COc1ccc(CC(C)N)cc1 (stereo not drawn) | > 100 | – | – | – | > 100 | > 100 | > 100 | > 100
CC(C)(Br)C1(O)CCCN1C(=O)c1ccccc1 (stereo not drawn) | > 100 | – | – | – | – | – | > 100 | > 100
NCc1ccccc1C1CSCSC1 | – | – | – | – | > 100 | > 100 | > 100 | –
COc1ccc(NC(=O)/C(=C/c2ccc(N(CCC#N)CCC#N)cc2)NC(=O)c2cc([N+](=O)[O-])ccc2Cl)cc1 | > 100 | – | – | – | > 100 | – | > 100 | > 100
CCOC(=O)/C=C(\C)c1ccc(OC)cc1 | > 100 | – | – | – | > 100 | > 100 | > 100 | > 100
CC[n+]1c(/C=C/c2ccc(N(CCCl)CCCl)cc2)ccc2cc(NC(=O)/C=C/c3ccccc3)ccc21 | 13 | – | – | – | – | 13.8 | – | –
COc1cc[n+](C)cc1 | > 100 | > 100 | > 100 | > 100 | > 100 | > 100 | > 100 | > 100
Cc1nc2ccccc2c(=O)[nH]1 | > 100 | – | – | – | > 100 | – | > 100 | > 100
COc1ccc(-c2cc(N3CCN(c4ccccc4)CC3)c(C#N)c(=O)o2)cc1 | 62.2 | – | – | – | 19.8 | > 100 | > 100 | > 100
CCC(C)C(=O)c1c(O)c(C/C=C(\C)CCC=C(C)C)c(O)c2c(C(O)CC)cc(=O)oc12 (stereo not drawn) | – | – | – | – | 4.53 | 3.35 | 11.3 | 2.68
CCO/N=[N+](\[O-])N(CC)CC | – | – | – | – | > 100 | – | – | > 100

Source: PubChem BioAssay (NCI)
